According to ChEMBL document CHEMBL4177722, “Small molecule inhibitors of anthrax edema factor” (Bioorg Med Chem Lett, 2018):

What was measured:
[1] = molecular target: T1, Calmodulin-sensitive adenylate cyclase (Bacillus anthracis, UniProt P40136); experiment: Inactivation of Bacillus anthracis edema factor in presence of CaM incubated for 10 to 240 mins by EnzChek pyrophosphate assay
T1 sequence (P40136 whole entry): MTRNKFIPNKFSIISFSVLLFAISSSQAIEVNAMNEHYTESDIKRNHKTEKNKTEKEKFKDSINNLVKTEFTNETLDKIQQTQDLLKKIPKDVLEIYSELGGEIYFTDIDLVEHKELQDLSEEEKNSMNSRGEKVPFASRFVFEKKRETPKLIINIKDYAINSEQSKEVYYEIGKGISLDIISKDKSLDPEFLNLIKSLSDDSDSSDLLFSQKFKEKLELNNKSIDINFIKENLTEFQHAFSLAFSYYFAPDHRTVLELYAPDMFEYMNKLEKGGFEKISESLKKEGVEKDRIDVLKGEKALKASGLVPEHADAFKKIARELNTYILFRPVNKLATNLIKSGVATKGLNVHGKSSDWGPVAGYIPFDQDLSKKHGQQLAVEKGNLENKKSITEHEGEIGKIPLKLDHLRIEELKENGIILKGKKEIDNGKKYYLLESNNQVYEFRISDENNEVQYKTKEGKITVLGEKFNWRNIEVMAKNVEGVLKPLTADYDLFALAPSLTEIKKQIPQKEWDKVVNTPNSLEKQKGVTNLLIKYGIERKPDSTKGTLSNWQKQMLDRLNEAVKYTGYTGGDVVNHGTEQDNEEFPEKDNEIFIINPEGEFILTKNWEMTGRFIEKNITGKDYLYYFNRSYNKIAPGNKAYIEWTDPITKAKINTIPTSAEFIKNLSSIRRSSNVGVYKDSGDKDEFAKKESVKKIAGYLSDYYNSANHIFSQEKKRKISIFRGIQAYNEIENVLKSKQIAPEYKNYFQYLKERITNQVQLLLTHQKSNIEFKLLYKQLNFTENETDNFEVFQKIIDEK

[2] = molecular target: Casein kinase II subunit alpha (Homo sapiens) (UniProt P68400); experiment: Inhibition of human CK2a1 at 10 uM by ADP-Glo kinase assay
[3] = molecular target: Death-associated protein kinase 1 (Homo sapiens) (UniProt P53355); experiment: Inhibition of human DAPK1 at 10 uM by ADP-Glo kinase assay
[4] = Cytotoxicity against mouse RAW264.7 cells assessed a reduction in cell viability incubated for 24 hrs in presence of 10% FBS by MTT assay; assay type: cell-based; conditions: RAW264.7 cells
[5] = molecular target: T2, Calmodulin-sensitive adenylate cyclase (Bacillus anthracis) (UniProt P40136); experiment: Inactivation of Bacillus anthracis edema factor assessed as Kinact/Ki ratio in presence of CaM incubated for 10 to 240 mins by EnzChek pyrophosphate assay
T2 sequence (whole entry): T1 sequence (P40136 whole entry)

[6] = molecular target: Mitogen-activated protein kinase 14 (Homo sapiens) (UniProt Q16539); experiment: Inhibition of human p38alpha at 10 uM by ADP-Glo kinase assay
[7] = molecular target: Casein kinase I isoform gamma-1 (Homo sapiens) (UniProt Q9HCP0); experiment: Inhibition of human CK1g1 at 10 uM by ADP-Glo kinase assay
[8] = molecular target: Misshapen-like kinase 1 (Homo sapiens) (UniProt Q8N4C8); experiment: Inhibition of human MINK at 10 uM by ADP-Glo kinase assay
RAW264.7 = experiment: Cytotoxicity against mouse RAW264.7 cells assessed a reduction in cell viability incubated for 24 hrs in absence of 10% FBS by MTT assay; assay type: cell-based; conditions: raw264.7, 24 h
[9] = molecular target: T3, Serine/threonine-protein kinase Chk1 (Homo sapiens) (UniProt O14757); experiment: Inhibition of human CHK1 at 10 uM by ADP-Glo kinase assay
T3 sequence (whole entry): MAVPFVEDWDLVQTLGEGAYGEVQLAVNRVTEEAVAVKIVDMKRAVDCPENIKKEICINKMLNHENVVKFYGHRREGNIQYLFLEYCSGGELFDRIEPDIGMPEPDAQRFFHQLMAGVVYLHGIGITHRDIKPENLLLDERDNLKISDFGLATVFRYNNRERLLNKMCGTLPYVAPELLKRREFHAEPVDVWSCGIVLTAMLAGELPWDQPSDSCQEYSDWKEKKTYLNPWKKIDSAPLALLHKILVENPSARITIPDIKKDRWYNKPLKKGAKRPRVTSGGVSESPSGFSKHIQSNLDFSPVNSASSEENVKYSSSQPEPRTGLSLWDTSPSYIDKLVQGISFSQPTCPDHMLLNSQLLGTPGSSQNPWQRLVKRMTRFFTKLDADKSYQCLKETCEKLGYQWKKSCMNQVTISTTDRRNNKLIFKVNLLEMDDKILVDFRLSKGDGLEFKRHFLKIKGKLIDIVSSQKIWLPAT

[10] = molecular target: T2, Calmodulin-sensitive adenylate cyclase (Bacillus anthracis); experiment: Inactivation of Bacillus anthracis edema factor assessed as Kinact/Ki ratio in presence of CaM incubated for 10 to 240 mins by EnzChek pyrophosphate assay relative to FSBA
[11] = molecular target: RAC-alpha serine/threonine-protein kinase (Homo sapiens) (UniProt P31749); experiment: Inhibition of human AKT1 at 10 uM by ADP-Glo kinase assay
[12] = molecular target: Interleukin-1 receptor-associated kinase 1 (Homo sapiens) (UniProt P51617); experiment: Inhibition of human IRAK at 10 uM by ADP-Glo kinase assay
[13] = molecular target: Serine/threonine-protein kinase PAK 1 (Homo sapiens) (UniProt Q13153); experiment: Inhibition of human PAK1 at 10 uM by ADP-Glo kinase assay
[14] = molecular target: T4, Aurora kinase A (Homo sapiens) (UniProt O14965); experiment: Inhibition of human Aurora A at 10 uM by ADP-Glo kinase assay
T4 sequence (whole entry): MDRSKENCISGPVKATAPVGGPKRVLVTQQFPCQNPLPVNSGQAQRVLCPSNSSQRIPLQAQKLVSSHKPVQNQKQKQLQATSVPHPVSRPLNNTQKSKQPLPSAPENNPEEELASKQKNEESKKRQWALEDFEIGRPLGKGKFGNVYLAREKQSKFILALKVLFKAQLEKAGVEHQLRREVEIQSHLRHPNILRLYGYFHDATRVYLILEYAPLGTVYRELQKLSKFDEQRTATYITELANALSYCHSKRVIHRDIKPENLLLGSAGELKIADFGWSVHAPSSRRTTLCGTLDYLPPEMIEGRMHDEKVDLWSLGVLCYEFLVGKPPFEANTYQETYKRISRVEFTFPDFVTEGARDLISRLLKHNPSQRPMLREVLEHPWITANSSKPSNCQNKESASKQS

Chain of Serine/threonine-protein kinase PAK 1 (Homo sapiens) (Q13153 whole entry): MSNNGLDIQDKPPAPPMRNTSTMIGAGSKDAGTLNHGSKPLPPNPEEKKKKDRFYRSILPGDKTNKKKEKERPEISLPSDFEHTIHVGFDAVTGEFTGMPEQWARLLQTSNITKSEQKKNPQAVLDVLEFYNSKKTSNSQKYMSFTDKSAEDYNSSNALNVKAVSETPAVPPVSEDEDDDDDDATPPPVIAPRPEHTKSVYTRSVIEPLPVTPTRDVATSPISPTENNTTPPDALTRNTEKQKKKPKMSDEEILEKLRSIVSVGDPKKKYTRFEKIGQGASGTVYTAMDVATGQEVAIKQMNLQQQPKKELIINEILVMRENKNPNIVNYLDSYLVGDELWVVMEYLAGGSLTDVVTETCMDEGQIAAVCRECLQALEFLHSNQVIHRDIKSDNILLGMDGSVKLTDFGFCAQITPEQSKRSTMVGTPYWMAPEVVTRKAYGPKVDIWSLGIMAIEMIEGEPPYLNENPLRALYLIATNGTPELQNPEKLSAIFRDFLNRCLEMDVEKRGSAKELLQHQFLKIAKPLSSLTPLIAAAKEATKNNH
Chain of Misshapen-like kinase 1 (Homo sapiens) (Q8N4C8 whole entry, looked up): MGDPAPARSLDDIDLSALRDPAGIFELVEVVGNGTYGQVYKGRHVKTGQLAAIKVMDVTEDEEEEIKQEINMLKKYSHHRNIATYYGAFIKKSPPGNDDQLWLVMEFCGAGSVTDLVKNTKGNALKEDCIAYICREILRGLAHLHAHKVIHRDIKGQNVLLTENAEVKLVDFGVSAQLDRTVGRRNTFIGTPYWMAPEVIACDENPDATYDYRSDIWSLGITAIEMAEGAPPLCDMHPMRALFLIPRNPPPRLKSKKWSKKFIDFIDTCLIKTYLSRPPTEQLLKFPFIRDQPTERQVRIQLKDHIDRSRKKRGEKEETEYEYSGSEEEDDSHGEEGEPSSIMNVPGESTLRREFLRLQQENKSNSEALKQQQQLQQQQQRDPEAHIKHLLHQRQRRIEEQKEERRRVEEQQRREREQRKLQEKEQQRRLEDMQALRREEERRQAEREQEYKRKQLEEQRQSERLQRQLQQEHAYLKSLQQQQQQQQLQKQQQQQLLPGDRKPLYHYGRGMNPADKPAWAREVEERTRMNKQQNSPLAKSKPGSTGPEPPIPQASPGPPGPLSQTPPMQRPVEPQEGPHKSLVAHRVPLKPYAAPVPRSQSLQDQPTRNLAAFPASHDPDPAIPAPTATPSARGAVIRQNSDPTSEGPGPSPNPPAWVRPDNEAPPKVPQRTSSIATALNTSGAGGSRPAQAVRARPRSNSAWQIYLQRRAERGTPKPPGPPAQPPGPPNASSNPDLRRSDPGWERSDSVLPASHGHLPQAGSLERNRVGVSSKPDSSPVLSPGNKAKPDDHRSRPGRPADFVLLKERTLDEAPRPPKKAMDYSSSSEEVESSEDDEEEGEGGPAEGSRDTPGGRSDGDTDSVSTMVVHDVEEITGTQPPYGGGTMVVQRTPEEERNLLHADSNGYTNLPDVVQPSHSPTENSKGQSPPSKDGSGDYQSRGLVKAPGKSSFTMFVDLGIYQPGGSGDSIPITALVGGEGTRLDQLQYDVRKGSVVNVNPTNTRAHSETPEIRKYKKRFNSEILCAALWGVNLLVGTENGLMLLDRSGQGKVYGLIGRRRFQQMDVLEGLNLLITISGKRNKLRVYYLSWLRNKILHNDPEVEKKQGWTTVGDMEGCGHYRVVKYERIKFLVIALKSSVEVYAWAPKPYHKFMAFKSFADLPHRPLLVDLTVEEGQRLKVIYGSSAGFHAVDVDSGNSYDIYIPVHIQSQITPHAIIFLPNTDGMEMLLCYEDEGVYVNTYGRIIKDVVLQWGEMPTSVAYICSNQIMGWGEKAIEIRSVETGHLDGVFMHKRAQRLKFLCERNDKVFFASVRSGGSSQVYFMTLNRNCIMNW
Chain of Mitogen-activated protein kinase 14 (Homo sapiens) (Q16539 whole entry, canonical isoform): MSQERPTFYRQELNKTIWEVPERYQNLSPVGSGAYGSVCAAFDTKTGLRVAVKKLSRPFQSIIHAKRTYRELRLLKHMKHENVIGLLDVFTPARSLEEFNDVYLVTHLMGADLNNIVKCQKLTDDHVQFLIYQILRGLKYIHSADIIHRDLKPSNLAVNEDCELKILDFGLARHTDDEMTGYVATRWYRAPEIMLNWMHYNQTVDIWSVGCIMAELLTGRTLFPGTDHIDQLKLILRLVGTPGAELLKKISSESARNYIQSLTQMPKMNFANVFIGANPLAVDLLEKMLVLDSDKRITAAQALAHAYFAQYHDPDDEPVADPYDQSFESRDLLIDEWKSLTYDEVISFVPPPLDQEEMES
Chain of RAC-alpha serine/threonine-protein kinase (Homo sapiens) (P31749 whole entry): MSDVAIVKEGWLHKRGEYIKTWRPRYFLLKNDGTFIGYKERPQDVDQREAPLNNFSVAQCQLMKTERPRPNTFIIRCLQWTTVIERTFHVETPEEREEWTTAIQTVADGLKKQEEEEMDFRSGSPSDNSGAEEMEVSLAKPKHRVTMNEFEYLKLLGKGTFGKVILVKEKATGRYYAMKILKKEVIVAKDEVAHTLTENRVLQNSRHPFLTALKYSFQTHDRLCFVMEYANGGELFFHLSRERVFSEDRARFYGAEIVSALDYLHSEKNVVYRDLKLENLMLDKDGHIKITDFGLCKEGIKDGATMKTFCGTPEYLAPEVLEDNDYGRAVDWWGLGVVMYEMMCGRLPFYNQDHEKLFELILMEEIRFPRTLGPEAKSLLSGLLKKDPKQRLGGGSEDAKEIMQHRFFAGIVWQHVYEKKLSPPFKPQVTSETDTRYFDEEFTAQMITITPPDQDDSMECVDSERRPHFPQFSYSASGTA
Chain of Casein kinase I isoform gamma-1 (Homo sapiens) (Q9HCP0 whole entry, looked up, canonical isoform): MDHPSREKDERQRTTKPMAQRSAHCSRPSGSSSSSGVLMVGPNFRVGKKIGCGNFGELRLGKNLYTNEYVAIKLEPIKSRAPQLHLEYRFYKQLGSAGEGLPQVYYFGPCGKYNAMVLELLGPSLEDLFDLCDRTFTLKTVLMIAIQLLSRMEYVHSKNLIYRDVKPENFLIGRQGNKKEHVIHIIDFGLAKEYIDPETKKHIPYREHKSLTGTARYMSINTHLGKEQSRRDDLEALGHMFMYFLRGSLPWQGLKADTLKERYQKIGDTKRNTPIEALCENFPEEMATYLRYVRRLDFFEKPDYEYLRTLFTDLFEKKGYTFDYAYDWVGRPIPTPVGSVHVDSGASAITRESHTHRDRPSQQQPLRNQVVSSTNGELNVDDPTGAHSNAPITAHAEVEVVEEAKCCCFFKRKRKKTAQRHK
Chain of Death-associated protein kinase 1 (Homo sapiens) (P53355 whole entry, looked up): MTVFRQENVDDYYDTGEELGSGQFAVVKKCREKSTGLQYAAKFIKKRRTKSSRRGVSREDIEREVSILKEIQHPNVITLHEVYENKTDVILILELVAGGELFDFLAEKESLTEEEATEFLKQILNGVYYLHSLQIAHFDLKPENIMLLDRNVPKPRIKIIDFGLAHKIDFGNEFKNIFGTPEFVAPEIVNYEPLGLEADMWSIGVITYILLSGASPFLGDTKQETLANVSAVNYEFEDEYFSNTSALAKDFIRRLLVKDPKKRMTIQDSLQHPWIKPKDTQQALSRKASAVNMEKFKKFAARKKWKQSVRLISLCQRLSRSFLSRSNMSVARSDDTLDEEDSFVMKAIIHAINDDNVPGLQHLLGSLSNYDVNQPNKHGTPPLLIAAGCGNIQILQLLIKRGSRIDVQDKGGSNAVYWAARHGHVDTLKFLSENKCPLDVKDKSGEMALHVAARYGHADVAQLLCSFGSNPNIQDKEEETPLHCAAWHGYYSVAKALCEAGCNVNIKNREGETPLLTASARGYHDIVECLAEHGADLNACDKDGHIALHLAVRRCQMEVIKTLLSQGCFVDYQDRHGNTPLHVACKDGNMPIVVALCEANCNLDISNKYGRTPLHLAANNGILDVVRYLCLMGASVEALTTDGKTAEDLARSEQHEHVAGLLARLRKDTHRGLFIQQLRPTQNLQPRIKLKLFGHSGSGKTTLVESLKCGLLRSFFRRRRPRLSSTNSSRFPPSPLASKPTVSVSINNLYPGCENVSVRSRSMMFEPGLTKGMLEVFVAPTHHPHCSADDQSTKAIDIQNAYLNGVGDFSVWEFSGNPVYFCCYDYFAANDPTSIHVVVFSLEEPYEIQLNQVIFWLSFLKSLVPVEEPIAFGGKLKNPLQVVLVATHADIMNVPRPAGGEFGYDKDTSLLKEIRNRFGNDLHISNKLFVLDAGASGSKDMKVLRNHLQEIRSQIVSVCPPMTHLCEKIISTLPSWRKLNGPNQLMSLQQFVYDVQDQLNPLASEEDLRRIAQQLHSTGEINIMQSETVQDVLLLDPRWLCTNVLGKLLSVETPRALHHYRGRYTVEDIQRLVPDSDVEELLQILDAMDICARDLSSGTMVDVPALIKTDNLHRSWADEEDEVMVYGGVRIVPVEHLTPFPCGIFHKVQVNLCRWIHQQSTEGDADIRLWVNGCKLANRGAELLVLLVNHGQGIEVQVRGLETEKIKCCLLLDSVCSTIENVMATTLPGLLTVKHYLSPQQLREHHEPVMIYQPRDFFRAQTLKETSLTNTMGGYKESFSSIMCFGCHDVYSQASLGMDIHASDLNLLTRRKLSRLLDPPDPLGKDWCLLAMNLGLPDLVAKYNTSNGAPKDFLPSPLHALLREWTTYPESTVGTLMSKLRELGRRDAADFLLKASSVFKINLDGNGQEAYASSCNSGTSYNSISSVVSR
Chain of Casein kinase II subunit alpha (Homo sapiens) (P68400 whole entry, looked up): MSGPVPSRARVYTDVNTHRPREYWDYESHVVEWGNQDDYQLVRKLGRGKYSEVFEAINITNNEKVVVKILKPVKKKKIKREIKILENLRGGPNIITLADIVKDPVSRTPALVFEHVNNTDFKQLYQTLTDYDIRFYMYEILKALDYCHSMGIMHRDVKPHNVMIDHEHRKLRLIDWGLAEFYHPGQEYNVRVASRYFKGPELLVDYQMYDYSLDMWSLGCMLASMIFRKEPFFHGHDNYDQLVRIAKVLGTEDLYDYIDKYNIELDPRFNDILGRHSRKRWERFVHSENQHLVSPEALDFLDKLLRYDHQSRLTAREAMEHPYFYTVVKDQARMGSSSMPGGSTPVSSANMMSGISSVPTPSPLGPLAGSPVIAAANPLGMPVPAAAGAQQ

| Compound | Ki [1] [µM] | inhibition [2] [%] | inhibition [3] [%] | CC50 at 24 h [4] [µM] | Ratio [5] | inhibition [6] [%] | inhibition [7] [%] | inhibition [8] [%] | Activity (RAW264.7) | inhibition [9] [%] | Ratio [10] | inhibition [11] [%] | inhibition [12] [%] | inhibition [13] [%] | inhibition [14] [%] |
| --- | --- | --- | --- | --- | --- | --- | --- | --- | --- | --- | --- | --- | --- | --- | --- |
| Nc1ncnc2c1ccn2C1CCN(C(=O)c2ccc(S(=O)(=O)F)cc2)CC1 | 0.3 | 9 | 4 | > 100 | 14200 | 6 | 23 | 5 | Non-Toxic | 18 | 1050 | 20 | 10 | 0 | 39 |
| Cc1nc(N)c2ccn(C3CCN(C(=O)c4ccc(S(=O)(=O)F)cc4)CC3)c2n1 | 0.7 | 16 | 13 | > 100 | 3140 | 2 | 16 | 17 | Non-Toxic | 97 | 234 | 24 | 0 | 0 | 47 |
